# Reference: patent US20050130134A1, “Means and methods for monitoring non-nucleoside reverse transcriptase inhibitor antiretroviral therapy and guiding therapeutic decisions in the treatment HIV-AIDS” (ViroLogic, Inc., priority 2000, published 2005)
# Columns and labels:
# [1] = system: RTV-268 patient virus (RT P236L with M41L, D67N, M184V, L210W, T215Y, K219Q); test: Phenotypic susceptibility assay, RTV-268 (patient 97-268); format: cell-based, HIV-1; conditions: RTV-268 patient virus compared to reference virus
# Protocol: Resistance tests were carried out with resistance test vectors using two host cell types. Resistance test vector viral particles were produced by a first host cell (the resistance test vector host cell) that was prepared by transfecting a packaging host cell with the resistance test vector and the packaging expression vector. The resistance test vector viral particles were then used to infect a second host cell (the target host cell) in which the expression of the indicator gene is measured.
# The resistance test vectors containing a functional luciferase gene cassette were constructed and host cells were transfected with the resistance test vector DNA. The resistant test vectors contained patient-derived reverse transcriptase and protease sequences that were either susceptible or resistant to the antiretroviral agents, such as nucleoside reverse transcriptase inhibitors, non-nucleoside reverse transcriptase inhibitors and protease inhibitors. The resistance test vector viral particles produced by transfecting the resistance test vector DNA into host cells, either in the presence or absence of protease inhibitors, were used to infect target host cells grown either in the absence of NRTI or NNRTI or in the presence of increasing concentrations of the drug. The amount of luciferase activity produced in infected target host cells in the presence of drug was compared to the amount of luciferase produced in infected target host cells in the absence of drug. Drug resistance was measured as the amount of drug required to inhibit by 50% the luciferase activity detected in the absence of drug (inhibitory concentration 50%, IC50). The IC50 values were determined by plotting percent drug inhibition vs. log10 drug concentration.
# Host cells were seeded in 10-cm-diameter dishes and were transfected several days after plating with resistance test vector plasmid DNA and the envelope expression vector. Transfections were performed using a calcium-phosphate precipitation procedure. The cell culture media containing the DNA precipitate was replaced with fresh medium, from one to 24 hours, after transfection. Cell culture media containing resistance test vector viral particles was harvested one to four days after transfection and was passed through a […] filter before being stored at −80° C. HIV capsid protein (p24) levels in the harvested cell culture media were determined by an EIA method as described by the manufacturer (SIAC; Frederick, Md.). Before infection, target cells (293 and 293/T) were plated in cell culture media. Control infections were performed using cell culture media from mock transfections (no DNA) or transfections containing the resistance test vector plasmid DNA without the envelope expression plasmid. One to three or more days after infection the media was removed and cell lysis buffer (Promega) was added to each well. […] The inhibitory effect of the drug was determined using the following equation: % luciferase inhibition=1-(RLUluc[drug]÷RLUluc)×100 where RLUluc [drug] is the relative light unit of luciferase activity in infected cells in the presence of drug and RLUluc is the Relative Light Unit of luciferase activity in infected cells in the absence of drug. IC50 values were obtained from the sigmoidal curves that were generated from the data by plotting the percent inhibition of luciferase activity vs. the log10 drug concentration.
# A resistance test vector was constructed as described in Example 1 from a patient sample designated 97-268. […] Isolation of viral RNA and RT/PCR was used to generate a patient derived segment that comprised viral sequences coding for all of PR and amino acids 1-313 of RT. The patient derived segment was inserted into a indicator gene viral vector to generate a resistance test vector designated RTV-268.
# [2] = system: Tyr181Cys (Y181C) mutation of HIV RT; conditions: cited from earlier work
# [3] = system: T66I integrase site-directed mutant; test: Phenotypic susceptibility assay, integrase T66I mutated resistance test vector; format: cell-based, HIV; conditions: T66I integrase mutant, FIG. 10
# Protocol: Transfections were performed using a calcium-phosphate precipitation procedure. […] Cell lysates were assayed for luciferase activity (FIG. 3). […] The drug inhibition curves are shown in (FIG. 3).
# A resistance test vector containing the threonine to isoleucine mutation at position 66 of the integrase protein (T66I) was constructed and tested using the phenotypic assay described earlier.
SMILES,change in susceptibility / resistance [1],other results
O=c1[nH]cnc2c1ncn2[C@H]1CC[C@@H](CO)O1 [ddI],slight shifts in susceptibility,–
Cc1cn([C@H]2C=C[C@@H](CO)O2)c(=O)[nH]c1=O [d4T],slight shifts in susceptibility,–
"CCc1cc(CCc2nc3ccccc3o2)c(=O)[nH]c1C [L-696,229]",–,change in susceptibility [2]: reduced susceptibility
Nc1ccn([C@H]2CC[C@@H](CO)O2)c(=O)n1 [ddC],slight shifts in susceptibility,–
"CCc1cc(NCc2nc3c(Cl)ccc(Cl)c3o2)c(O)nc1C [L-697,661]",–,change in susceptibility [2]: reduced susceptibility
Nc1ccn([C@@H]2CS[C@H](CO)O2)c(=O)n1 [3TC],significant resistance,–
Cc1cn([C@H]2C[C@H](N=[N+]=[N-])[C@@H](CO)O2)c(=O)[nH]c1=O [AZT],significant resistance,–
"O=C(O)C(=O)CC(=O)c1cccn1Cc1ccc(F)cc1 [L-731,988]",–,reduction in susceptibility compared to wild type control RTV [3]: 4.7 fold
